From publication PMC6545111 (Journal of medicinal chemistry, 2018)
One block for each molecule: values may come before it.

Legend:
BRD4 BD1 protein [1] = target: T1, BRD4 BD1 protein (Homo sapiens, UniProt O60885); assay: biochemical
[2] = test system: cleaved PARP and cleaved Caspase 3 in RS4;11 cells; assay: Western blotting of cleaved PARP / caspase 3 in RS4; type: cell-based, human; conditions: RS4;11 cells; for apoptosis induction revealed by cleavage of PARP: 1 and 10 nM, 24 h treatment
[3] = test system: BRD2, BRD3 and BRD4 proteins in RS4;11 cells; conditions: for lowest concentration very effective in inducing degradation of BET proteins: 3 h treatment
[4] = test system: MV4;11, MOLM-13 and RS4;11 acute leukemia cell lines; assay: Cell growth inhibition, statements covering the three leukemia cell lines; type: cell-based, human
MV4;11 cells = assay: Apoptosis by flow cytometry; type: cell-based, human; conditions: MV4;11, 1–10 μM
MOLM-13 cells = assay: Apoptosis by flow cytometry; type: cell-based, human; conditions: MOLM-13, 1–10 μM
RS4;11 cells = assay: Apoptosis by flow cytometry; type: cell-based, human; conditions: RS4;11, 1–10 μM
BRD4 BD1 protein [5] = target: T1, BRD4 BD1 protein; conditions: for times less potent than 3 in binding to BRD4 BD1: vs compound 3
[6] = test system: c-Myc protein in RS4;11 cells; assay: Western blotting of c-Myc in RS4; type: cell-based, human; conditions: RS4;11 cells, 3 h treatment

- IC50 (BRD4 BD1 protein [1]): 4.4 ± 0.7 µM
- Ki (BRD4 BD1 protein [1]): 1.5 ± 0.2 µM
Molecule: Cc1cc2c(s1)-n1c(C)nnc1COC2 [Compound 2, 2,9-dimethyl-4H,6H-thieno[2,3-e][1,2,4]triazolo[3,4-c][1,4]oxazepine]

Molecule: 4-((3-(4-((3-Benzyl-9-methyl-4H,6H-thieno[2,3-e][1,2,4]triazolo[3,4-c][1,4]oxazepin-2yl)ethynyl)-1H-pyrazol-1-yl)propyl)amino)-2-(2,6-dioxopiperidin-3-yl)isoindoline-1,3-dione [Compound 29]
- apoptosis induction revealed by cleavage of PARP [2]: potently induce apoptosis
- lowest concentration very effective in inducing degradation of BET proteins [3]: ≤ 0.1 nM
- times more potent than 28 in cell growth inhibition ([4]; three cell lines): 3–10 times

Molecule: Cc1nnc2n1-c1sc(C#Cc3cnn(C)c3)c(Cc3ccccc3)c1COC2 [Compound 22, 3-Benzyl-9-methyl-2-((1-methyl-1H-pyrazol-4-yl)ethynyl)-4H,6H-thieno[2,3-e][1,2,4]triazolo[3,4-c][1,4]oxazepine]
- PARP cleavage ([2]; 10 μM, 24 h): only marginally
- apoptosis induction (MV4;11 cells): minimal to modest effect
- apoptosis induction (MOLM-13 cells): minimal to modest effect
- apoptosis induction (RS4;11 cells): minimal to modest effect

Molecule: 4-((4-((3-Benzyl-9-methyl-4H,6H-thieno[2,3-e][1,2,4]triazolo[3,4-c][1,4]oxazepin-2-yl)ethynyl)-1H-pyrazol-1-yl)methoxy)-2-(2,6-dioxopiperidin-3-yl)isoindoline-1,3-dione [Compound 27]
- degradation of BRD2 and BRD3 relative to BRD4 [3]: more effectively than the BRD4 protein
- relative potency in inducing degradation of BET proteins [3]: much less potent than compounds 29, 30 and 31
- lowest concentration very effective in inducing degradation of BRD2, BRD3 and BRD4 ([3]; time- and dose-dependent): ≤ 10 nM

Molecule: 4-(4-((3-Benzyl-9-methyl-4H,6H-thieno[2,3-e][1,2,4]triazolo[3,4-c][1,4]oxazepin-2-yl)ethynyl)-1H-pyrazol-1-yl)-2-(2,6-dioxopiperidin-3-yl)isoindoline-1,3-dione [Compound 26]
- degradation of BRD2, BRD3 and BRD4 proteins ([3]; up to 1,000 nM, 24 h treatment): failed to induce degradation
- cell growth inhibitory activity ([4]; concentrations up to 1,000 nM, any of the three leukemia cell lines): failed to show significant cell growth inhibitory activity

- times less potent than 3 in binding to BRD4 BD1 (BRD4 BD1 protein [5]): > 50 times
Molecule: Cc1nnc2n1-c1sc(C3CCOCC3)c(Cc3ccccc3)c1COC2 [Compound 6, 3-Benzyl-9-methyl-2-(tetrahydro-2H-pyran-4-yl)-4H,6H-thieno[2,3-e][1,2,4]triazolo[3,4c][1,4]oxazepine]

Molecule: 4-((4-(4-((3-Benzyl-9-methyl-4H,6H-thieno[2,3-e][1,2,4]triazolo[3,4-c][1,4]oxazepin-2yl)ethynyl)-1H-pyrazol-1-yl)butyl)amino)-2-(2,6-dioxopiperidin-3-yl)isoindoline-1,3-dione [Compound 30]
- lowest concentration reducing the levels of c-Myc protein [6]: ≤ 0.1 nM
- apoptosis induction revealed by cleavage of PARP [2]: potently induce apoptosis
- lowest concentration very effective in inducing degradation of BET proteins [3]: ≤ 0.1 nM
- times more potent than 29 in cell growth inhibition ([4]; each of the three leukemia cell lines): 2–3 times

- times less potent than 3 in binding to BRD4 BD1 (BRD4 BD1 protein [5]): 25 times
Molecule: Cc1nnc2n1-c1scc(Cc3ccccc3)c1COC2 [Compound 4, 3-Benzyl-9-methyl-4H,6H-thieno[2,3-e][1,2,4]triazolo[3,4-c][1,4]oxazepine]

- times less potent than 3 in binding to BRD4 BD1 (BRD4 BD1 protein [5]): 6 times
- times less potent than 8 in binding to BRD4 BD1 (BRD4 BD1 protein [5]; vs compound 8): 3 times
Molecule: Cc1nnc2n1-c1sc(C#N)c(Cc3ccccc3)c1COC2 [Compound 9, 3-Benzyl-9-methyl-4H,6H-thieno[2,3-e][1,2,4]triazolo[3,4-c][1,4]oxazepine-2-carbonitrile]

Molecule: 4-((2-(4-((3-Benzyl-9-methyl-4H,6H-thieno[2,3-e][1,2,4]triazolo[3,4-c][1,4]oxazepin-2-yl)ethynyl)-1H-pyrazol-1-yl)ethyl)amino)-2-(2,6-dioxopiperidin-3-yl)isoindoline-1,3-dione [Compound 28]
- apoptosis induction revealed by cleavage of PARP [2]: potently induce apoptosis

Molecule: 4-(5-(4-((3-Benzyl-9-methyl-4H,6H-thieno[2,3-e][1,2,4]triazolo[3,4-c][1,4]oxazepin-2-yl)ethynyl)-1H-pyrazol-1-yl)pent-1-yn-1-yl)-2-(2,6-dioxopiperidin-3-yl)isoindoline-1,3-dione [Compound 36]
- times less potent than 35 in cell growth inhibition ([4]; three leukemia cell lines): 10–100 times

Molecule: 4-((5-(4-((3-Benzyl-9-methyl-4H,6H-thieno[2,3-e][1,2,4]triazolo[3,4-c][1,4]oxazepin-2-yl)ethynyl)-1H-pyrazol-1-yl)pentyl)amino)-2-(2,6-dioxopiperidin-3-yl)isoindoline-1,3-dione [Compound 31]
- lowest concentration reducing the levels of c-Myc protein [6]: ≤ 0.1 nM
- apoptosis induction revealed by cleavage of PARP [2]: potently induce apoptosis
- lowest concentration very effective in inducing degradation of BET proteins [3]: ≤ 0.1 nM
